7 compounds from US20240124432A1, “HERBICIDAL COMPOUNDS” (SYNGENTA CROP PROTECTION AG, priority 2020, published 2024) can be followed below.

Holding throughout (type): in vivo
Assay [1] relates to ECHCG. Briefly: Pre-emergence biological efficacy. As to conditions: Echinochloa crus-galli, 312 h, evaluated after 13 days, read-out: damage to plant (100=total damage to plant; 0=no damage to plant). The gist of the method: (§1)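 Injury rating (0 = no damage, 100 = plant killed) taken 13 days after a single spray of compound at the chosen dose onto freshly sown pots held 1 day in the glasshouse beforehand.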

The subject of assay [2] is AMAPA. Briefly: Pre-emergence biological efficacy. As to conditions: Amaranthus palmeri, 312 h, evaluated after 13 days, read-out: damage to plant (100=total damage to plant; 0=no damage to plant). The gist of the method: as §1
Assay [3] concerns EPHHL. Description: Pre-emergence biological efficacy. As to conditions: Euphorbia heterophylla, 312 h, evaluated after 13 days, read-out: damage to plant (100=total damage to plant; 0=no damage to plant). Summed up:
as §1

Assay [4] relates to LOLPE. Briefly: Pre-emergence biological efficacy. As to conditions: Lolium perenne, 312 h, evaluated after 13 days, read-out: damage to plant (100=total damage to plant; 0=no damage to plant). The gist of the method:
as §1

For assay [5], the system named is SETFA. Description: Pre-emergence biological efficacy. As to conditions: Setaria faberi, 312 h, evaluated after 13 days, read-out: damage to plant (100=total damage to plant; 0=no damage to plant). The gist of the method: as §1
Assay [6] deals with IPOHE. Description: Pre-emergence biological efficacy. As to conditions: Ipomoea hederacea, 312 h, evaluated after 13 days, read-out: damage to plant (100=total damage to plant; 0=no damage to plant). The gist of the method: as §1
The test system of assay [7] is ECHCG. Description: Post-emergence biological efficacy. As to conditions: Echinochloa crus-galli, 312 h, evaluated after 13 days, read-out: damage to plant (100=total damage to plant; 0=no damage to plant). Summed up: (§2)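 Pot-grown plants were raised 14 days in a glasshouse (24/19 °C day/night, 16 h light), then sprayed post-emergence with an aqueous dilution of a 50 g/l IF50 formulation stock in 0.2% Genapol XO80. They were kept at 24/18 °C, 15 h light, 50% humidity, and visually scored for damage after 13 days (0 = none, 100 = total).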

A further assay relates to DIGSA. Description: Post-emergence biological efficacy. As to conditions: Digitaria sanguinalis, 312 h, evaluated after 13 days, read-out: damage to plant (100=total damage to plant; 0=no damage to plant). The gist of the method: as §2
The subject of another assay is ELEIN. Briefly: Post-emergence biological efficacy. As to conditions: 312 h, evaluated after 13 days, read-out: damage to plant (100=total damage to plant; 0=no damage to plant). The gist of the method:
as §2

A further assay deals with CHEAL. Briefly: Post-emergence biological efficacy. As to conditions: Chenopodium album, 312 h, evaluated after 13 days, read-out: damage to plant (100=total damage to plant; 0=no damage to plant). The gist of the method: as §2
For assay [8], the system named is AMAPA. Description: Post-emergence biological efficacy. As to conditions: Amaranthus palmeri, 312 h, evaluated after 13 days, read-out: damage to plant (100=total damage to plant; 0=no damage to plant). The gist of the method: as §2
In assay [9] the test system is EPHHL. Briefly: Post-emergence biological efficacy. As to conditions: Euphorbia heterophylla, 312 h, evaluated after 13 days, read-out: damage to plant (100=total damage to plant; 0=no damage to plant). The gist of the method:
as §2

Assay [10] concerns LOLPE. Description: Post-emergence biological efficacy. As to conditions: Lolium perenne, 312 h, evaluated after 13 days, read-out: damage to plant (100=total damage to plant; 0=no damage to plant). The gist of the method:
as §2

Assay [11] deals with SETFA. Briefly: Post-emergence biological efficacy. As to conditions: Setaria faberi, 312 h, evaluated after 13 days, read-out: damage to plant (100=total damage to plant; 0=no damage to plant). The gist of the method: as §2
In assay [12] the test system is IPOHE. Briefly: Post-emergence biological efficacy. As to conditions: Ipomoea hederacea, 312 h, evaluated after 13 days, read-out: damage to plant (100=total damage to plant; 0=no damage to plant). Summed up: as §2

Consider `CCOC(=O)C1(C)CC(c2cc(-c3c(Cl)cc(C(F)(F)F)c[n+]3[O-])ccc2Cl)=NO1` (stereo not drawn) [Compound 1-663, Ethyl 3-[2-chloro-5-(3-chloro-1-oxido-5-trifluoromethyl-2-pyridyl)-phenyl]-5-methyl-4H-isoxazole-5-carboxylate], for which the pest or weed control at 250 g/ha came to 30% with ECHCG [1]; 100% in the assay on AMAPA [2]; 90% in the assay with EPHHL [3]; 50% in the assay with LOLPE [4]; 40% in the assay on SETFA [5]; 90% in the assay with IPOHE [6]. Further, the pest or weed control at 250 g/ha with ECHCG [7], with DIGSA, with ELEIN, in the assay on CHEAL, in the assay with AMAPA [8] and in the assay on EPHHL [9] was 100% throughout. In addition, the pest or weed control at 250 g/ha in the assay with LOLPE [10], in the assay with SETFA [11] and in the assay with IPOHE [12] was 100% each time.

In the case of `CCOC(=O)C1(C)CC(c2cc(-c3c(Cl)cc(C(F)(F)F)c[n+]3[O-])c(F)cc2Cl)=NO1` (stereo not drawn) [Compound 1-667, Ethyl 3-[2-chloro-5-(3-chloro-1-oxido-5-trifluoromethyl-2-pyridyl)-4-fluoro-phenyl]-5-methyl-4H-isoxazole-5-carboxylate], the pest or weed control at 250 g/ha with ECHCG [1], in the assay on AMAPA [2], in the assay with EPHHL [3], in the assay on LOLPE [4], in the assay on SETFA [5] and in the assay with IPOHE [6] was 100% throughout. The pest or weed control at 250 g/ha in the assay with ECHCG [7], with DIGSA, in the assay on ELEIN, in the assay with CHEAL, in the assay with AMAPA [8] and in the assay on EPHHL [9] was 100% throughout. For the same compound, the pest or weed control at 250 g/ha in the assay on LOLPE [10], in the assay with SETFA [11] and in the assay on IPOHE [12] was 100% throughout.

In the case of `CCOC(=O)C1(C)CC(c2cc(-c3ccc(Cl)nn3)c(F)cc2Cl)=NO1` (stereo not drawn) [Compound 1-679, Ethyl 3-[2-chloro-5-(6-chloropyridazin-3-yl)-4-fluoro-phenyl]-5-methyl-4H-isoxazole-5-carboxylate], the pest or weed control at 250 g/ha with ECHCG [1], in the assay on AMAPA [2], in the assay on EPHHL [3], in the assay on LOLPE [4], in the assay on SETFA [5] and in the assay with IPOHE [6] was 0% each time. Also, the pest or weed control at 250 g/ha was 50% with ECHCG [7]; 50% in the assay with DIGSA; 60% with ELEIN; 60% with CHEAL; 60% with AMAPA [8]; 50% with EPHHL [9]. Further, the pest or weed control at 250 g/ha in the assay on LOLPE [10] was determined as 10%; in the assay on SETFA [11], 50%; in the assay on IPOHE [12], 40%.

As for `CCOC(=O)C1(C)CC(c2cc(-c3cncc(C(F)(F)F)n3)c(F)cc2Cl)=NO1` (stereo not drawn) [Compound 1-727, Ethyl 3-[2-chloro-4-fluoro-5-[6-(trifluoromethyl)pyrazin-2-yl]phenyl]-5-methyl-4H-isoxazole-5-carboxylate], the pest or weed control at 250 g/ha with ECHCG [1] came to 30%; with AMAPA [2] it was 0%; in the assay with EPHHL [3], 10%; in the assay on LOLPE [4], 0%; in the assay with SETFA [5], 10%; with IPOHE [6] it was 20%. Besides, the pest or weed control at 250 g/ha in the assay with ECHCG [7] came to 90%; with DIGSA, 70%; with ELEIN, 80%; in the assay on CHEAL, 70%; with AMAPA [8] it was 70%; with EPHHL [9], 70%. Also, the pest or weed control at 250 g/ha amounted to 20% with LOLPE [10], 90% in the assay on SETFA [11] and 100% with IPOHE [12].

With `CCOC(=O)C1(C)CC(c2cc(-c3cnc(C)cn3)c(F)cc2Cl)=NO1` (stereo not drawn) [Compound 1-739, Ethyl 3-[2-chloro-4-fluoro-5-(5-methylpyrazin-2-yl)phenyl]-5-methyl-4H-isoxazole-5-carboxylate], the pest or weed control at 250 g/ha in the assay on ECHCG [1], with AMAPA [2], with EPHHL [3], in the assay on LOLPE [4], with SETFA [5] and in the assay on IPOHE [6] was 0% each time. Also, the pest or weed control at 250 g/ha turned out to be 30% in the assay on ECHCG [7]; 30% with DIGSA; 50% in the assay with ELEIN; 50% with CHEAL; 50% in the assay with AMAPA [8]; 40% in the assay on EPHHL [9]. Moreover, the values for the pest or weed control at 250 g/ha in the assay with LOLPE [10], in the assay with SETFA [11] and with IPOHE [12] were 0%, 30% and 50%, respectively.

Regarding `CCOC(=O)C1(C)CC(c2cc(-c3cnc4ccc(C(F)(F)F)cc4n3)c(F)cc2Cl)=NO1` (stereo not drawn) [Compound 1-763, Ethyl 3-[2-chloro-4-fluoro-5-[7-(trifluoromethyl)quinoxalin-2-yl]phenyl]-5-methyl-4H-isoxazole-5-carboxylate], the pest or weed control at 250 g/ha in the assay with ECHCG [1], in the assay with AMAPA [2], in the assay with EPHHL [3], with LOLPE [4], with SETFA [5] and in the assay with IPOHE [6] was 0% each time. In addition, the pest or weed control at 250 g/ha with ECHCG [7] worked out at 0%; in the assay on DIGSA it was 0%; in the assay with ELEIN, 0%; in the assay with CHEAL, 20%; with AMAPA [8] it was 20%; in the assay on EPHHL [9] it was 20%. Further, the figures for the pest or weed control at 250 g/ha in the assay with LOLPE [10], with SETFA [11] and in the assay on IPOHE [12] were 0%, 0% and 10%, respectively.

For the compound `CCOC(=O)C1(C)CC(c2cc(-c3nccnc3C)c(F)cc2Cl)=NO1` (stereo not drawn) [Compound 1-775, Ethyl 3-[2-chloro-4-fluoro-5-(3-methylpyrazin-2-yl)phenyl]-5-methyl-4H-isoxazole-5-carboxylate], the pest or weed control at 250 g/ha in the assay on ECHCG [1], with AMAPA [2], in the assay with EPHHL [3], in the assay with LOLPE [4], in the assay on SETFA [5] and with IPOHE [6] was 0% each time. Also, the pest or weed control at 250 g/ha with ECHCG [7] came to 20%; in the assay on DIGSA, 20%; in the assay on ELEIN it was 50%; in the assay on CHEAL, 60%; in the assay with AMAPA [8], 60%; with EPHHL [9], 40%. For the same compound, the pest or weed control at 250 g/ha with LOLPE [10] was 0%; with SETFA [11] it was 50%; in the assay with IPOHE [12] it was 30%.
